Measurements: patent US7332504B2, “Heterocyclic substituted aminoazacycles useful as central nervous system agents” (Abbott Laboratories, priority 1999, dated 2008)
pKi: −log10 of the molar value. Structures can show the parent of a compound that is named as a salt.

Assays:
[1] = target: T1, neuronal nicotinic acetylcholine receptors (Rattus norvegicus, UniProt P09483+P12390); assay: Binding of [3H]-cytisine to neuronal nicotinic acetylcholine receptors, crude synaptic membranes from whole rat brain
T1 construct: crude synaptic membrane preparations from whole rat brain; from tissue; host or cells: whole rat brain, crude synaptic membranes
T1 sequence (P09483 31-630): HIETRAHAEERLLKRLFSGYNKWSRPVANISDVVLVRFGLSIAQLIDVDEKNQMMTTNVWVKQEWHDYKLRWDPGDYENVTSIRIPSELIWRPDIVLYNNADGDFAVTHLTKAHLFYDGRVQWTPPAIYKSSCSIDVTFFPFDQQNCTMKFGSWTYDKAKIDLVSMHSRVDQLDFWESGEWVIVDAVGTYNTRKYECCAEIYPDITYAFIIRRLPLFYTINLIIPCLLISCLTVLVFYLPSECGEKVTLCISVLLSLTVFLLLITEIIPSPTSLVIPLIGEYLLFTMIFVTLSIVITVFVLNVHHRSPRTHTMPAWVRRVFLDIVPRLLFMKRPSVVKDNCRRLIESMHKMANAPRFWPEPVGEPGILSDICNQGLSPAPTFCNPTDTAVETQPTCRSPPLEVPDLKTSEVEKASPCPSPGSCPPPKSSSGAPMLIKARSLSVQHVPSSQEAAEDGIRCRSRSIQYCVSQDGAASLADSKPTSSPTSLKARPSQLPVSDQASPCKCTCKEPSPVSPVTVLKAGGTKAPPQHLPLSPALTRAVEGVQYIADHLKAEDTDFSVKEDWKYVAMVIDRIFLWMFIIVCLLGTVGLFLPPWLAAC
T1 sequence (P12390 25-500): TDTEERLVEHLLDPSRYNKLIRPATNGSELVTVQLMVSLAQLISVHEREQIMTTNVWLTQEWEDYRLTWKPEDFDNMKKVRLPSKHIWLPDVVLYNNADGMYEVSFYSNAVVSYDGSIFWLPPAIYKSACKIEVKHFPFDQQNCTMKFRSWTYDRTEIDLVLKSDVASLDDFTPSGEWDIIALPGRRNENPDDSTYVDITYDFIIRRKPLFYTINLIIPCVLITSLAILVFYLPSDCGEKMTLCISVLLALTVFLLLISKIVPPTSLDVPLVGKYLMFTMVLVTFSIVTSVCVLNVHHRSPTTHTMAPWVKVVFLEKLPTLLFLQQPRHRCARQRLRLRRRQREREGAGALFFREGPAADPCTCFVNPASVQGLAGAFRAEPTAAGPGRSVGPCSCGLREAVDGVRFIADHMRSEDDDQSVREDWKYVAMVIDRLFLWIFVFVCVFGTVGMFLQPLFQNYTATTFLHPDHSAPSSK
Method: The In Vitro protocols for determination of nicotinic acetylcholine channel receptor binding potencies of ligands were determined as follows.
Binding of [^3H]-cytisine ([^3 H]-CYT) to neuronal nicotinic acetylcholine receptors was accomplished using crude synaptic membrane preparations from whole rat brain (Pabreza et al., Molecular Pharmacol., 1990, 39:9). Washed membranes were stored at —80° C. prior to use. Frozen aliquots were slowly thawed and resuspended in 20 volumes of buffer (containing: 120 mM NaCl, 5 mM KCl, 2 mM MgCl2, 2 mM CaCl2 and 50 mM Tris-Cl, pH 7.4 @4° C.). After centrifuging at 20,000×g for 15 minutes, the pellets were resuspended in 30 volumes of buffer.
The test compounds were dissolved in water to make 10 mM stock solutions. Each solution was then diluted (1:100) with buffer (as above) and further taken through seven serial log dilutions of produce test solution from 10^−5 to 10^−11 M.
Homogenate (containing 125-150 μg protein) was added to triplicate tubes containing the range of concentrations of test compound described above and [^3H]-CYT (1.25 nM) in a final volume of 500 μL. Samples were incubated for 60 minutes at 4° C., then rapidly filtered through Whatman GF/B filters presoaked in 0.5% polyethyleneimine using 3×4 mL of ice-cold buffer. The filter are counted in 4 mL of Ecolume® (ICN). Nonspecific binding was determined in the presence of 10 μM (−)-nicotine and values were expressed as a percentage of total binding. IC50 values were determined with the RS-1 (BBN) nonlinear least squares curve-fitting program and IC50 values were converted to Ki values using the Cheng and Prusoff correction ([…].

mouse hot plate paradigm = assay: Mouse hot plate paradigm (analgesia); type: in vivo; conditions: ip, 0.5 h, mice, intraperitoneal, dosed 30 minutes prior to testing, hot plate 55° C., increase in tenth jump latency relative to control, read-out: minimally effective dose (MED)
Method: An in vivo protocol was utilized to determine the effectiveness of nicotinic acetylcholine receptor ligands as analgesic agents in the mouse hot plate paradigm.
Separate groups of mice, (n=8/group) were utilized for each dose group. All drugs were administered by the intraperitoneal route of administration. Test drugs were dissolved in water to make a 6.2 mM stock solution. Animals were dosed with this solution (10 mL/kg body weight) for a 62 micromol/kg dose. Lower doses were administered similarly, following serial dilution of the stock solution in half-log increments. Animals were dosed 30 minutes prior to testing in the hot plate. The hot-plate utilized was an automated analgesia monitor (Model #AHP16AN, Omnitech Electronics, Inc. of Columbus, Ohio). The temperature of the hot plate was maintained at 55° C. and a cut-off time of 180 seconds was utilized. Latency until the tenth jump was recoreded as the dependent measure. An increase in the tenth jump latency relative to the control was considered an effect.

| SMILES | melting point | pKi [1] | minimal effective dose (mouse hot plate paradigm) [µmol/kg] |
| --- | --- | --- | --- |
| CN[C@@H]1CCN(c2cncc([N+](=O)[O-])c2)C1 (as salt: fumarate) [Example 32, N-methyl-N-[(3R)-1-(5-nitro-3-pyridinyl)pyrrolidinyl]amine fumarate] | 184 to 185 °C |  |  |
| CN[C@H]1CCN(c2ccc(Cl)nc2)C1 (as salt: hydrochloride) [Example 1, N-[(3S)-1-(6-chloro-3-pyridinyl)pyrrolidinyl]-N-methylamine hydrochloride] | > 250 °C |  |  |
| N[C@H]1CCN(c2ccc(Cl)nc2)C1 (as salt: hydrochloride) [Example 2, (3S)-1-(6-chloro-3-pyridinyl)pyrrolidinylamine dihydrochloride] | > 250 °C |  |  |
| CN[C@@H]1CCN(c2ccc(Cl)nc2)C1 (as salt: hydrochloride) [Example 5, N-[(3R)-1-(6-chloro-3-pyridinyl)pyrrolidinyl]-N-methylamine hydrochloride] | 265 °C (dec.) |  |  |
| N[C@@H]1CCN(c2cncc(C(F)(F)F)c2)C1 (as salt: hydrochloride) [Example 11, (3R)-1-[5-(trifluoromethyl)-3-pyridinyl]pyrrolidinylamine dihydrochloride] | 234 to 235 °C |  |  |
| CN[C@@H]1CCN(c2cncc(C(F)(F)F)c2)C1 (as salt: hydrochloride) [Example 12, N-methyl-N-{(3R)-1-[5-(trifluoromethyl)-3-pyridinyl]pyrrolidinyl}amine hydrochloride] | 265 °C (dec.) |  |  |
| N[C@H]1CCN(c2cncc(C(F)(F)F)c2)C1 (as salt: hydrochloride) [Example 13, (3S)-1-[5-(trifluoromethyl)-3-pyridinyl]pyrrolidinylamine dihydrochloride] | 235 to 236 °C |  |  |
| CN[C@H]1CCN(c2cncc(C(F)(F)F)c2)C1 (as salt: hydrochloride) [Example 14, N-methyl-N-{(3S)-1-[5-(trifluoromethyl)-3-pyridinyl]pyrrolidinyl}amine hydrochloride] | 240 to 243 °C (dec.) |  |  |
| CN[C@H]1CCCN(c2ccc(Cl)nc2)C1 (as salt: hydrochloride) [Example 46, N-[(3S)-1-(6-chloro-3-pyridinyl)piperidin-3-yl]-N-methylamine dihydrochloride] | 120 to 122 °C |  |  |
| CN[C@@H]1CCCN(c2ccc(Cl)nc2)C1.Cl.Cl [Example 48, N-[(3R)-1-(6-chloro-3-pyridinyl)piperidin-3-yl]-N-methylamine dihydrochloride] | 103 to 105 °C | 6.78 |  |
| CN[C@H]1CCCN(c2cnc(Cl)c(C)c2)C1.Cl [Example 49, N-[(3S)-1-(6-chloro-5-methyl-3-pyridinyl)piperidin-3-yl]-N-methylamine hydrochloride] | 75 to 77 °C | 8.32 | 62 |
